Read-outs that look alike come from different tables or passages of the source. Where a SMILES comes first, the peptide text is derived from it. The star is where a group is joined. AspCH2OBz(2,6-Me2) = Cc1cccc(C)c1C(=O)OCC(=O)[C@H](CC(=O)O)N*
Columns and labels:
[1] = target: T1, caspase-3 (Homo sapiens, UniProt P42574); test: Determination of Ki and IC50 inhibition parameters; type: biochemical; conditions: for Ki: Morrison equation, 15 min pre-incubation with inhibitor at 37 C
T1 construct: made in house
T1 sequence (P42574 29-175 limits assumed): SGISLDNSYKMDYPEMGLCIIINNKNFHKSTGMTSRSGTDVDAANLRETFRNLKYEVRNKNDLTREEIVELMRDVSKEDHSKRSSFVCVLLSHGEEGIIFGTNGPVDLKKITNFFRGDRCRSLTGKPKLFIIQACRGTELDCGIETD
T1 sequence (P42574 176-277 limits assumed): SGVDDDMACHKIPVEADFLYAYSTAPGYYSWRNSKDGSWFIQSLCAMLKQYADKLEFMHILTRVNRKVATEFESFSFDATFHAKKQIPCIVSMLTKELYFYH
Procedure: (§1) The detailed protocol for the expression and purification of human apoptotic caspases can be found elsewhere (Stennicke, 1999).
(§2) The measurement of Ki and IC50 inhibition parameter of synthesized inhibitors towards caspases-2, -3, and -8 was performed using a fMax spectrofluorimeter (Molecular Devices, Sunnyvale, CA, USA) operating in fluorescence kinetic mode in 96-well Corning (Corning, NY, USA) plates. Before kinetic analysis, all caspases were active site-titrated using the zVAD-fmk inhibitor (Cayman Chemical Company, Cat No. 14467). The caspases assay buffer was 10% w/v sucrose, […], 20 mM Pipes, 10 mM NaCl, 1 mM EDTA, and 10 mM DTT (pH=7.3). Buffers were prepared at room temperature, and all kinetic assays were performed at 37° C. The Ki parameter was measured using the Morrison equation (Copeland, 2000). For each caspase, an appropriate ACC-fluorogenic substrate was used to monitor substrate hydrolysis: NH-Idc-hGlu-Thr(Bzl)-Ser-Asp-ACC (50 uM) for caspase-2, Ac-DEVD-ACC (100 uM) for caspase-3 and Ac-LEHD-ACC (100 uM) for caspase-8. The ACC fluorescence was monitored using 355 nm (excitation) and 460 nm (emission) wavelengths. To meet the criteria for reversible inhibitor kinetics, the lowest inhibitor concentration was at least 4-fold higher that the caspase concentration in the assay. The caspase (60 uL) was first pre-warmed in the assay buffer in the 96-well plate for 15 min at 37 C and then pre-incubated with the inhibitor (20 uL) for another 15 min at 37 C. Next, the substrate (20 uL) was added to the enzyme-inhibitor mixture and the progress of reaction (ACC release) was monitored over time. The Ki parameter was calculated from Morrison equation, and the IC50 parameter was calculated using the formula: IC50=Ki×(1+[S]/Km], where the [S] is substrate concentration used in the assay and Km is a Michaelis-Menten constant for a substrate. All the measurements were performed at least three times and the data was analyzed using GraphPad Prism 7 software.

[2] = target: T2, caspase-8 (Homo sapiens, UniProt Q14790); test: Determination of Ki and IC50 inhibition parameters; type: biochemical; conditions: for Ki: Morrison equation, 15 min pre-incubation with inhibitor at 37 C
T2 construct: made in house

[3] = target: T3, caspase-2 (Homo sapiens, UniProt P42575); conditions: Poreba et al. (2019); cited from earlier work
T3 sequence (P42575 170-325 limits assumed): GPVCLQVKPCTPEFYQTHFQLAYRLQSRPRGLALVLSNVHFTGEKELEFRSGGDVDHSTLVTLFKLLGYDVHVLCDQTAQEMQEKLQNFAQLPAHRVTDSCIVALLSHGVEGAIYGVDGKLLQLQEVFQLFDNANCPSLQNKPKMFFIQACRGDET
T3 sequence (P42575 348-452 limits assumed): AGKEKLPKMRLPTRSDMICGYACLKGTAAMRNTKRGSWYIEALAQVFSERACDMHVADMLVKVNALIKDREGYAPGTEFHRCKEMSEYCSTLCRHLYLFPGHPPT

[4] = target: T3, caspase-2; test: Determination of Ki and IC50 inhibition parameters; type: biochemical; parameters: made in house; conditions: for Ki: Morrison equation, 15 min pre-incubation with inhibitor at 37 C; for IC50: calculated as IC50=Ki×(1+[S]/Km), substrate NH-Idc-hGlu-Thr(Bzl)-Ser-Asp-ACC 50 uM
Procedure: as §1, §2

[5] = target: T3, caspase-2; test: Kinetic assay of substrates NH-Idc-P4-P3-Dab-Asp-ACC (Example 4); type: biochemical; conditions: substrate 10 μM; caspase-2 10 nM; 37° C.
Procedure: Prior to kinetic assay, substrates (several L) were diluted in DMSO to the […] (working concentration). Next, 1 μL of such substrate was spot into the well of 96-well plate following by the addition of […] of caspase-2 in buffer. Immediately after the enzyme was added, the plate was placed in fluorescence plate reader and the fluorescence was measured over the time in a kinetic mode (excitation 355 nm, emission 460 nm). The liberation of fluorescence was carried out for 30 minutes, and only linear portion of the plot was taken for analysis to calculate the rate of the reaction. The rate of best cleaved substrate was set to 100% and all other substrates were adjusted accordingly (cleavage rate, %). The final concentration of substrate was 10 μM, and the final concentration of caspase-2 was 10 nM. The caspase-2 assay buffer was 20 mM Pipes, 100 mM NaCl, sucrose 10% (w/v), 10 mM DTT, pH 7.2-7.4. The caspase-2 was preincubated in buffer at 37° C. for 15 min before added to the substrate.

[6] = test system: HepG2 cells; test: Intracellular lipid accumulation, in vitro cellular model of NASH; type: cell-based; parameters: inhibition of intracellular lipid-accumulation: dose or concentration left out as unconfirmed; conditions: for inhibition of intracellular lipid-accumulation: NASH-triggered HepG2 cultures, FIG. 4
Procedure: HepG2 cells (50.000 cells/well) were plated into 12-multiwell culture dishes on coverslips previously coated with collagen (2 mg/mL collagen solution (BD Biosciences) in PBS incubated at 37° C. for 30 min).
Cells were treated with a “NASH cocktail”: DMEM containing 4.5 mg/mL glucose supplemented with 10% (v/v) FBS, 1% (v/v) PenStrep and 2 mM L-glutamine plus fatty acids (100 μM sodium oleate and 100 μM palmitic acid), 100 nM insulin (all Sigma-Aldrich) and inflammatory cytokines (50 ng/ml tumor necrosis factor, TNF-α (Prospec), 25 ng/ml interleukin IL-1β (Petroteck) and 8 ng/ml transforming growth factor, TGF-β (R&D Systems)). The cells were exposed for 24h to this “NASH cocktail” and KIN compounds were concomitantly added at different concentrations.
At the end of treatments cells were washed with PBS and incubated with staining solution (BODIPY493/503 (Thermo Fisher Scientific) for 15 min at 37° C. Then cells were washed three times with PBS and were fixed in 4% PFA for 30 min at room temperature. After three additional washes with PBS, coverslips were mounted onto glass slides with a drop of Prolong® Gold antifade reagent (Invitrogen) with DAPI overnight at room temperature. Fluorescence micrographs were taken using an Axoimagen M1 microscope (Zeiss, Oberkochen, Germany) and fluorescent signals (DAPI and BODIPY) were quantified using ImageJ (n=10). The intracellular lipid load was calculated as a function of BODIPY™ 493/503 lipid dye area.
An in vitro cellular model of NASH was used to test the efficacy of caspase-2 inhibitors preventing intracellular accumulation of lipids. In this model, HepG2 cells are exposed for 24 h to “NASH conditions” including lipogenic (glucose, insulin, fatty acids) and inflammatory and pro-apoptotic (TNF-α, IL-1β, and TGF-β) triggers. […] This model has shown to correlate with human NASH pathology (Boeckmans et al. 2019).

[7] = target: T3, caspase-2; conditions: state of the art; cited from earlier work
[8] = target: T1, caspase-3; test: Determination of kobs/I inhibition parameter; type: biochemical; conditions: pH 7.3; pseudo-first-order conditions; substrate Ac-DEVD-ACC 100 uM; 37° C.
Procedure: (§3) The measurement of kobs/l inhibition parameter (second order rate of enzyme inhibition) of synthesized inhibitors towards caspases-2, -3, and -8 was performed using a fMax spectrofluorimeter (Molecular Devices, Sunnyvale, CA, USA) operating in fluorescence kinetic mode in 96-well Corning (Corning, NY, USA) plates. Before kinetic analysis, all caspases were active site-titrated using the zVAD-fmk inhibitor (Cayman Chemical Company, Cat No. 14467). The caspases assay buffer was 10% w/v sucrose, […], 20 mM Pipes, 10 mM NaCl, 1 mM EDTA, and 10 mM DTT (pH=7.3). Buffers were prepared at room temperature, and all kinetic assays were performed at 37° C. The kobs/l parameter was measured under pseudo-first-order kinetic conditions ([I]>>[E]). […] The ACC fluorescence was monitored using 355 nm (excitation) and 460 nm (emission) wavelengths. […] At the same time in a separate tube, the caspase was preincubated in assay buffer at 37 C, and after 15 min, the enzyme was added to wells (60 uL per well, total reaction volume 100 uL) and the fluorescence was monitored for 30 min, starting immediately. Second-order rate of inhibition (Kobs/l) was determined in at least three independent experiments and presented as an average value. […]

[9] = target: T2, caspase-8; test: Determination of kobs/I inhibition parameter; type: biochemical; conditions: pH 7.3; pseudo-first-order conditions; substrate Ac-LEHD-ACC 100 uM; 37° C.
Procedure: as §3

[10] = target: T3, caspase-2; test: Determination of kobs/I inhibition parameter; type: biochemical; parameters: made in house; conditions: pH 7.3; pseudo-first-order conditions; substrate NH-Idc-hGlu-Thr(Bzl)-Ser-Asp-ACC 50 uM; 37° C.
Procedure: as §3

[11] = calculated as IC50=Ki×(1+[S]/Km), substrate Ac-DEVD-ACC 100 uM
[12] = calculated as IC50=Ki×(1+[S]/Km), substrate Ac-LEHD-ACC 100 uM

T2 sequence (Q14790 217-374 limits assumed): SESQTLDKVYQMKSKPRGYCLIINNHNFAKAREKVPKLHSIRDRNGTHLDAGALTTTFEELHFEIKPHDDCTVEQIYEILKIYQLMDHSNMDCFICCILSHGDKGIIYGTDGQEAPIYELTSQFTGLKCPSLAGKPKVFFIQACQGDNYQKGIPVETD
T2 sequence (Q14790 385-479 limits assumed): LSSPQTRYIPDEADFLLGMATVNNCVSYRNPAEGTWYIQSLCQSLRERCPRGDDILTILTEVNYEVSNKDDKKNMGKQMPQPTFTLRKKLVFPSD

## NH-Idc-hGlu-Thr(Bzl)-Ser-Asp-AOMK [reference compound]
[1]
  Ki: 1.1 nM
[1]; [11]
  IC50: 7.1 nM
[2]
  Ki: 6.2 nM
[2]; [12]
  IC50: 46.2 nM
[3]
  Caspase-2 inhibitory activity: highest Caspase-2 inhibitory activity among the assayed compounds
  selectivity for Caspase-3: no selectivity for Caspase-3
  selectivity for Caspase-8: limited selectivity for Caspase-8
[4]
  Ki: 0.7 nM
  IC50: 7.9 nM

## NH-Idc-hLeu-Thr(Bzl)-Dab-Asc-ACC
[5]
  RFU/s, %, average (cleavage rate, best substrate set to 100%): 0.0%

## NH-Idc-hGlu-Thr(Bzl)-Lys-Asp-AOMK [Compound 1]
[1]
  Ki: 3.8 nM
[1]; [11]
  IC50: 24.8 nM
[2]
  Ki: 6.7 nM
[2]; [12]
  IC50: 49.8 nM
[6]; HepG2 under NASH conditions, inhibitors at 10, 20 and […], FIG. 5
  efficacy inhibiting intracellular lipid accumulation: better efficacy than NH-23-C2
[6]
  inhibition of intracellular lipid-accumulation: significantly higher percentage of inhibition than NH-23-C2 compound
[4]
  Ki: 0.8 nM
  IC50: 8.8 nM

## Ac-VDVAD-aldehyde
[7]
  potency against caspase-3 compared with caspase-2: more potent against caspase-3 than to caspase-2

## NH-Idc-hGlu-Thr(Bzl)-Orn-Asp-AOMK [Compound 3]
[1]
  Ki: 13.8 nM
[1]; [11]
  IC50: 91 nM
[2]
  Ki: 43.3 nM
[2]; [12]
  IC50: 320 nM
[6]
  inhibition of intracellular lipid-accumulation: significantly higher percentage of inhibition than NH-23-C2 compound
[4]
  Ki: 0.7 nM
  IC50: 7.4 nM

## CC(=O)N[C@H](C(=O)N[C@@H](CC(=O)O)C(=O)N[C@H](C(=O)N[C@@H](C)C(=O)N[C@@H](CC(=O)O)C(=O)COC(=O)c1c(C)cccc1C)C(C)C)C(C)C [Ac-Val-Asp-Val-Ala-Asp-AOMK, reference compound] (Ac-VDVA-{AspCH2OBz(2,6-Me2)})
[8]
  kinact/KI: 1.36e+06 M⁻¹ s⁻¹
[9]
  kinact/KI: 98.4 M⁻¹ s⁻¹
[1]
  IC50: 0.1 nM
[2]
  IC50: 16 nM
  Ki: 2.2 nM
[10]
  kinact/KI: 643 M⁻¹ s⁻¹
[4]
  Ki: 0.4 nM
  IC50: 4.9 nM

## NH-Idc-hGlu-Thr(Bzl)-Dab-Asp-AOMK [Compound 2]
[1]
  Ki: 29.3 nM
[1]; [11]
  IC50: 193 nM
[2]
  Ki: 209 nM
[2]; [12]
  IC50: 1540 nM
[6]
  inhibition of intracellular lipid-accumulation: significantly higher percentage of inhibition than NH-23-C2 compound
[4]
  Ki: 1.1 nM
  IC50: 12 nM
